Like-named read-outs stand apart in the source and are kept apart here.
Key:
[1] = persons not prone to silver allergies
Excerpt: Preferred routes of administration include topically and application to mucosa. Application can be made, for example, digitally or using a suitable applicator.

breast cancer = system: breast cancer
Description: A subject group was formed of thirty female residents of Central America aged 32 to 52 years who had been diagnosed as having breast cancer. […] The diagnosis of each subject was confirmed by biopsy and a mammogram was acquired from each subject.
Each subject was evaluated daily by an oncologist(s) and each received a single dosage of tetrasilver tetroxide by IV, i.e., intravenously, sufficient to provide a concentration in the bloodstream of 10 ppm. One-half of the patients received the dosage in 10 minutes by IV injection. The other half of the subjects received the dosage by IV injection over a 4-hour period.
As discussed below, the subjects were arranged in three histology groups. Within each histologic group, 50% of the subjects received the dosage via the 10 minute IV and the other 50% of the subjects received the dosage over the 4 hour period of time.
Prior to initiating treatment, the tetrasilver tetroxide was subjected a quality assurance protocol to reduce side effects.
Group I: Group I included 10 patients who had been diagnosed as having infiltrative canalicular breast carcinoma.
A 1 cm diameter biopsy fragment was sent to a pathologist laboratory.
Group II: Group II included 10 subjects were diagnosed as having ductile carcinoma special type, medular breast cancer.
Group III: Group III included ten patients diagnosed as having infiltrative lobular breast cancer.
For each of the three groups, the dosage was 10 ppm for every subject. The patients had 24-hour evaluations by three oncologists who were each responsible for an 8-hour time period. Every 4 hours, a professional nurse acquired vital signs from the subjects. Twenty-four hour hemodynamic monitoring was performed. The subjects walked 2 hours after they received the dosage and they were prescribed a free diet. Every twenty-four hours, urine was collected. Every seven days, the following laboratory tests were performed: a complete blood count, hemoglobin, hematocracity, vcm, vhcm, complete red blood cells, complete white blood cells, albumin, bilirubin, calcium, and cholesterol, creatine, glucose, ldh, potassium, sodium, triglyceride, uric acid, urea nitrogen, AST and SGOT.

A498 = conditions: A498, estimated
Description: (§1) An independent laboratory performed cytotoxicity tumor cell proliferation studies and evaluations. A culture of leukemia K562 was tested in vitro against media concentrations of tetrasilver tetroxide at: 0.5, 1,5, 10, 50, 100, 500 and 1000 ppm.
(§2) The tetroxide was dispersed in pure dimethyl sulfoxide and then diluted with Holipharm NPS buffer PH=7.4 (Holipharm International Co., Wilmington, Del.) in culture media to achieve the aforesaid final assay concentrations. The acronym NPS refers to non phosphate non saline. The culture media comprised RPMI 1640, 90% and fetal bovine serum, 10%. The cancer cultures were obtained from a cell line provided by the American Type Culture Collection (ATCC) and were incubated at 37° C. with 5% CO2 in air atmosphere. The culture was a human chronic myelogenous leukemia, of cell line source ATCCCCL-243.
(§3) As for the actual evaluation, cell proliferation analysis was based on the ability of viable cells to cause alamar blue to change from oxidized (non-fluorescent, blue) to reduced (fluorescent, red) form. Details of the procedure are described in an article by S. Ansar Ahmed et. al. in the Journal of Immunological Methods 170 (1994).
(§4) The ^aIC50 (50% Inhibition Concentration) is the test compound concentration where the increase from times in the number or mass of treated cells was only 50% as much as the corresponding increase in the vehicle-control at the end of experiment. The bTGI (Total Growth Inhibition) is the test compound concentration where the number or mass of treated cells at the end of experiment was equal to that at time. The CLC (50% Lethal Concentration) is the test compound concentration where the number or mass of treated cells at the end of experiment was half that at time.

A549 = conditions: A549, estimated
Description: as §1, §2, §3, §4

DLD-i = conditions: estimated
Description: as §1, §2, §3, §4

H33HJ-.JA1 = conditions: H33HJ-.JA1, estimated
Description: as §1, §2, §3, §4

HL-60 = conditions: HL-60, estimated
Description: as §1, §2, §3, §4

HeDG2 = conditions: HeDG2, estimated
Description: as §1, §2, §3, §4

KATO III = conditions: estimated
Description: as §1, §2, §3, §4

MCF-7 = conditions: MCF-7, estimated
Description: as §1, §2, §3, §4

MIA PaCa2 = conditions: MIA PaCa2, estimated
Description: as §1, §2, §3, §4

PANC-i = conditions: estimated
Description: as §1, §2, §3, §4

PC-3 = conditions: PC-3, estimated
Description: as §1, §2, §3, §4

T47D = conditions: estimated
Description: as §1, §2, §3, §4

U937 = conditions: U937, estimated
Description: as §1, §2, §3, §4

[2] = system: human malignant melanoma cell line SK-MEL-5
Description: as §1, §2, §3, §4

leukemia K562 = system: leukemia K562
Description: as §1, §2, §3, §4

pc-6 = conditions: pc-6, estimated
Description: as §1, §2, §3, §4

[3] = system: gynecological yeast infection; conditions: 10 ppm silver tetroxide and 40 ppm sodium persulfate; cited from earlier work
athlete's foot = conditions: solution of 100 ppm of the composition; cited from earlier work
toenail fungus = conditions: 25% suspension of the composition; cited from earlier work
[4] = single IV injection at about 40 ppm of human blood; cited from earlier work
[5] = compared with Ag(I) compounds; cited from earlier work
[6] = Group III, day 20 after treatment

Q: What does the source list for `[Ag+].[Ag+].[Ag+].[Ag+].[O-2].[O-2].[O-2].[O-2]` [tetrasilver tetroxide]?
A: ill effects or irritation on application to the skin [1]: without any ill effects or evidence of irritation; sodium, potassium and magnesium blood levels (breast cancer; Group I): decreased; nodule on palpation (breast cancer; Group I infiltrative canalicular breast carcinoma, single IV dose 10 ppm in bloodstream, 12 days after treatment): the nodule was no longer discernable by touch; patients with increase in body temperature and slight liver enlargement (breast cancer; Group I, 10 minute IV injection subgroup): Three of the patients; biopsies reported as normal mammary tissue (breast cancer; Group I, biopsy ordered 19 days after treatment): 100%; liver function (breast cancer; Group I, patients with liver enlargement): not affected; liver function (breast cancer; Group II): not affected; sodium, potassium and magnesium blood levels (breast cancer; Group II): decreased; average tumor size (breast cancer; Group II medular breast cancer, 36 hours after treatment, formerly 10 cm): 8.4 cm; biopsy reported as normal mammary tissue (breast cancer; Group II, biopsy after 24 days): 90%; tumor mass (breast cancer; Group II, day 16 after treatment): the huge tumor mass was gone; patients with increase in body temperature and slight liver enlargement (breast cancer; Group II, direct IV injection subgroup): One patient; sodium, potassium and magnesium blood levels (breast cancer; Group III): deceased; average nodule size (breast cancer; Group III infiltrative lobular breast cancer, 5 days after treatment, from 4 cm): 2.6 cm; biopsies reported as normal mammary tissue (breast cancer; Group III, biopsy ordered day 29 after treatment): 80%; average nodule size (breast cancer; [6]): 1 cm; remission of retracted nipples, nipple bleeding, distorted areola, mass attachment (breast cancer; [6]): 90%; patients with increase in body temperature or slight liver enlargement (breast cancer; Group III, direct injection subgroup): None of the patients; period to apparent cure (breast cancer; ductile carcinoma special type, medular breast carcinoma (Group II)): 30 days; period to apparent cure (breast cancer; infiltrative breast carcinoma (Group I)): 24 days; period to apparent cure (breast cancer; infiltrative lobular breast cancer (Group III)): 30 days; IC50 (A498): 1.8 ppm; LC50 (A498): 3.1 ppm; TGI (A498): 2.4 ppm; IC50 (A549): 4.8 ppm; LC50 (A549): 7.0 ppm; TGI (A549): 5.8 ppm; IC50 (DLD-i): 2.5 ppm; LC50 (DLD-i): 3.6 ppm; TGI (DLD-i): 3.0 ppm; IC50 (H33HJ-.JA1): 0.79 ppm; LC50 (H33HJ-.JA1): 3.8 ppm; TGI (H33HJ-.JA1): 1.3 ppm; IC50 (HL-60): 2.1 ppm; LC50 (HL-60): 4.6 ppm; TGI (HL-60): 3.1 ppm; IC50 (HeDG2): 2.6 ppm; LC50 (HeDG2): 4.7 ppm; TGI (HeDG2): 3.5 ppm; IC50 (KATO III): 3.2 ppm; LC50 (KATO III): 4.1 ppm; TGI (KATO III): 3.6 ppm; IC50 (MCF-7): 3.0 ppm; LC50 (MCF-7): 5.0 ppm; TGI (MCF-7): 3.9 ppm; IC50 (MIA PaCa2): 2.0 ppm; LC50 (MIA PaCa2): 8.1 ppm; TGI (MIA PaCa2): 4.0 ppm; IC50 (PANC-i): 4.8 ppm; LC50 (PANC-i): 8.6 ppm; TGI (PANC-i): 6.4 ppm; IC50 (PC-3): 7.7 ppm; LC50 (PC-3): 25 ppm; TGI (PC-3): 14 ppm; IC50 (T47D): 1.1 ppm; LC50 (T47D): 2.6 ppm; TGI (T47D): 1.6 ppm; IC50 (U937): 1.3 ppm; LC50 (U937): 3.6 ppm; TGI (U937): 2.2 ppm; IC50 (50% Inhibition Concentration) [2]: 3.7 ppm; LC50 (50% Lethal Concentration) [2]: 6.5 ppm; TGI (Total Growth Inhibition) [2]: 4.9 ppm; IC50 (50% Inhibition Concentration) (leukemia K562): 2.2 ppm; LC50 (50% Lethal Concentration) (leukemia K562): 6.0 ppm; TGI (Total Growth Inhibition) (leukemia K562): 4.6 ppm; IC50 (pc-6): 0.9 ppm; LC50 (pc-6): 1.1 ppm; TGI (pc-6): 1.0 ppm; outcome of gynecological yeast infection [3]: curing; outcome of athlete's foot, single case (athlete's foot): cure; outcome of toenail fungus, single case (toenail fungus): cure; adverse effect on the liver [4]: hepatomegaly; liver function [4]: no reported loss of liver function; staining of organic matter such as skin [5]: did not stain organic matter such as skin

— US6485755B1, “Methods of using electron active compounds for managing cancer” (Marantech Holding, priority 2000, dated 2002)
